Reference: PMC7483467, “A small molecular compound CC1007 induces cross-lineage differentiation by inhibiting HDAC7 expression and HDAC7/MEF2C interaction in BCR-ABL1^− pre-B-ALL” (Cell Death & Disease, 2020)

Molecular target: T1, MEF2C (Homo sapiens, UniProt Q06413)
T1 construct: endogenous intracellular protein in Nalm-6 and primary pre-B-ALL cells; untagged; detected by western blot
Experiment: cellular thermal shift assay (CETSA and ITDRF-CETSA), western blot read-out
Type: cell-based
Details: Nalm-6 and primary BCR-ABL1- pre-B-ALL cells; dose-response at 52 °C; endogenous MEF2C

T1 sequence (Q06413 whole entry): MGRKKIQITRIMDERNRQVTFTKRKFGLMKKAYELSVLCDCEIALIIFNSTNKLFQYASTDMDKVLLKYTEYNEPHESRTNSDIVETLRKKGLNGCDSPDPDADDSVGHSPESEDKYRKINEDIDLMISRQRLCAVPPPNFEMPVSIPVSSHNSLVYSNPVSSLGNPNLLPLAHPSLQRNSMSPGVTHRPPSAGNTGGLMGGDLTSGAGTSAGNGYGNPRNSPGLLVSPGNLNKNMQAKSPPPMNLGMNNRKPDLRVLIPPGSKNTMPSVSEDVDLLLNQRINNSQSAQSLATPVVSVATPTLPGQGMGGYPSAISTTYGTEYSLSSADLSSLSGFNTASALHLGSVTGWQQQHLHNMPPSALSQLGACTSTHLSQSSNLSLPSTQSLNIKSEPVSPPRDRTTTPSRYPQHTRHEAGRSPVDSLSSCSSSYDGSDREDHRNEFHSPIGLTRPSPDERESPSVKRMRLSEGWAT

Q: For `Nc1ccccc1NC(=O)CCCCCC(=O)Nc1cccc(Br)c1` [CC1007], which “thermal stabilisation (CETSA)” value is on record?
A: These data indicate that CC1007 directly interacts with intracellular MEF2C.
